# Assay results as given in ChEMBL document CHEMBL4251572, “Novel aminopyrimidinyl benzimidazoles as potentially antimicrobial agents: Design, synthesis and biological evaluation” (Eur J Med Chem, 2018).
# The source made the active and inactive calls. No cut-off for these calls is given here.
# How the values were obtained:
# Staphylococcus aureus [1] = test: Antibacterial activity against Staphylococcus aureus ATCC 25923 after 24 hrs by micro broth dilution assay; type: functional; conditions: ATCC 25923, 24 h
# Escherichia coli [2] = test: Antibacterial activity against Escherichia coli JM109 after 24 hrs by micro broth dilution assay; type: functional; conditions: JM109, 24 h
# Saccharomyces cerevisiae = test: Antifungal against Saccharomyces cerevisiae after 24 hrs by two fold serial dilution method; type: functional
# Pichia norvegensis = test: Antifungal against Candida mycoderma after 24 hrs by two fold serial dilution method; type: functional
# Albumin [3] = molecular target: T1, Albumin (Homo sapiens, UniProt P02768); test: Binding affinity to HSA assessed as Stern-Volmer quenching constant at pH 7.4 at 298 K by fluorescence spectroscopic analysis; type: ADME; conditions: isolated protein
# Albumin [4] = molecular target: T1, Albumin; test: Binding affinity to HSA at 0.2 to 1 10'5 mol/L by synchronous fluorescence […]; type: ADME; conditions: isolated protein
# Escherichia coli [5] = test: Antibacterial activity against Escherichia coli DH52 after 24 hrs by micro broth dilution assay; type: functional; conditions: DH52, 24 h
# HepG2 = test: Induction of ROS generation in human HepG2 cells at 6.25 to 50 uM by DCFH-DA staining based fluorescence microscopic analysis; type: cell-based; conditions: hepg2, 50 µM
# Pseudomonas aeruginosa [6] = test: Antibacterial activity against Pseudomonas aeruginosa after 24 hrs by micro broth dilution assay; type: functional
# Albumin [7] = molecular target: T1, Albumin; test: Binding affinity to HSA assessed as increase in absorption intensity by UV-vis absorption spectra analysis; type: ADME; conditions: isolated protein
# Shigella dysenteriae = test: Antibacterial activity against Shigella dysenteriae after 24 hrs by micro broth dilution assay; type: functional
# Pseudomonas aeruginosa [8] = test: Ratio of MBC for Pseudomonas aeruginosa to MIC for Pseudomonas aeruginosa; type: functional
# Aspergillus flavus = test: Antifungal against Aspergillus flavus after 24 hrs by two fold serial dilution method; type: functional
# Calf thymus DNA [9] = test: Binding affinity to calf thymus DNA assessed as Stern-Volmer quenching constant at 2 x 10^-5 mol/L at pH 7.4 at 298 K in presence of potassium iodide by fluorescence assay (reference value: 46.23 L/mol); type: nucleic-acid assay; conditions: Bos taurus
# L02 = test: Cytotoxicity against human LO2 cells at 100 to 500 ug/ml after 48 hrs by MTT assay; type: cell-based; conditions: l02, 48 h
# Calf thymus DNA [10] = test: Competitive binding affinity to calf thymus DNA assessed as reduction in DNA_AO complex fluorescence intensity by acridine orange staining-based assay; type: nucleic-acid assay; conditions: Bos taurus
# Albumin [11] = molecular target: T1, Albumin; test: Binding affinity to HSA assessed as Stern-Volmer quenching constant at pH 7.4 at 303 K by fluorescence spectroscopic analysis; type: ADME; conditions: isolated protein
# Bacillus = test: Antibacterial activity against Bacillus proteus ATCC 13315 after 24 hrs by micro broth dilution assay; type: functional; conditions: ATCC 13315, 24 h
# Pseudomonas aeruginosa [12] = test: Antibacterial activity against Pseudomonas aeruginosa incubated for 24 hrs followed by plating onto tryptic soy agar medium and measured after 24 hrs; type: functional
# Calf thymus DNA [13] = test: Binding affinity to calf thymus DNA by UV-vis absorption spectra analysis; type: nucleic-acid assay; conditions: Bos taurus
# Staphylococcus aureus [14] = test: Antibacterial activity against methicillin-resistant Staphylococcus aureus N315 after 24 hrs by micro broth dilution assay; type: functional; conditions: N315, 24 h
# Calf thymus DNA [15] = test: Binding affinity to calf thymus DNA assessed as hypochromic effect by UV-vis absorption spectra analysis; type: nucleic-acid assay; conditions: Bos taurus
# Staphylococcus aureus [16] = test: Antibacterial activity against methicillin-resistant Staphylococcus aureus N315 after 16 serial passages by two-fold serial dilution assay; type: functional, organism-based
# Staphylococcus aureus [17] = test: Antibacterial activity against methicillin-resistant Staphylococcus aureus N315 incubated for 24 hrs followed by plating onto tryptic soy agar medium and measured after 24 hrs; type: functional; conditions: N315, 24 h
# Candida albicans = test: Antifungal against Candida albicans ATCC 76615 after 24 hrs by two fold serial dilution method; type: functional; conditions: ATCC 76615, 24 h
# Staphylococcus aureus [18] = test: Antibacterial activity against Staphylococcus aureus ATCC 25923 incubated for 24 hrs followed by plating onto tryptic soy agar medium and measured after 24 hrs; type: functional; conditions: ATCC 25923, 24 h
# Cyberlindnera jadinii = test: Antifungal against Candida utilis after 24 hrs by two fold serial dilution method; type: functional; conditions: Williopsis jadinii
# Albumin [19] = molecular target: T1, Albumin; test: Binding affinity to HSA assessed as Stern-Volmer quenching constant at pH 7.4 at 284 K by fluorescence spectroscopic analysis; type: ADME; conditions: isolated protein
# Salmonella typhi = test: Antibacterial activity against Bacillus typhi after 24 hrs by micro broth dilution assay; type: functional, Salmonella enterica subsp. enterica serovar Typhi; conditions: Salmonella enterica
# Staphylococcus aureus [20] = test: Ratio of MBC for Staphylococcus aureus ATCC 25923 to MIC for Staphylococcus aureus ATCC 25923; type: functional
# Micrococcus luteus = test: Antibacterial activity against Micrococcus luteus ATCC4698 after 24 hrs by micro broth dilution assay; type: functional; conditions: ATCC4698, 24 h
# Bacillus subtilis = test: Antibacterial activity against Bacillus subtilis after 24 hrs by micro broth dilution assay; type: functional
# T1 sequence (P02768 whole entry): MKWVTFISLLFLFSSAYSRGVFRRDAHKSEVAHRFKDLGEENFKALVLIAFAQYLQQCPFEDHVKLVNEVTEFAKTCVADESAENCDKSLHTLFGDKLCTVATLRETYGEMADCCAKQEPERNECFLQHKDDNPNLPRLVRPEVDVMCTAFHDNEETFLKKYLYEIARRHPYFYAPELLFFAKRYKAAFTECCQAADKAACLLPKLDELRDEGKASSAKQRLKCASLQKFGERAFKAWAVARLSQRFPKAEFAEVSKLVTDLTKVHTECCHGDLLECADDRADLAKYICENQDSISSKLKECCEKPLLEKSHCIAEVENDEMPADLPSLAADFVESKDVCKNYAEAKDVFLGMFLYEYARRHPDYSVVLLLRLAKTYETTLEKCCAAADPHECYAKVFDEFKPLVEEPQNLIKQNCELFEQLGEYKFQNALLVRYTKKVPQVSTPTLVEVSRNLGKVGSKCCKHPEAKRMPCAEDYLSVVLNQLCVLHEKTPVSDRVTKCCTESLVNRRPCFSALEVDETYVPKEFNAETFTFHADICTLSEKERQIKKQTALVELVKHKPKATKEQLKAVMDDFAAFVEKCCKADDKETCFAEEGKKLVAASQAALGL
smiles,measurement,setting,value
Cc1ccc(-c2cc(-c3nc4ccccc4[nH]3)nc(N)n2)cc1,MIC,Staphylococcus aureus [1],8 µg/mL
same,MIC,Escherichia coli [2],2 µg/mL
same,MIC,Saccharomyces cerevisiae,4 µg/mL
same,MIC,Pichia norvegensis,4 µg/mL
same,KSV,Albumin [3],1.9 ×10⁵ L/mol
same,Activity,Albumin [4],Active
same,MIC,Escherichia coli [5],1 µg/mL
same,Activity,HepG2,Non-Toxic
same,MIC,Pseudomonas aeruginosa [6],4 µg/mL
same,Activity,Albumin [7],Active
same,MIC,Shigella dysenteriae,16 µg/mL
same,Ratio,Pseudomonas aeruginosa [8],2
same,MIC,Aspergillus flavus,1 µg/mL
same,KSV,Calf thymus DNA [9],39.9 L/mol
same,Activity,L02,Non-Toxic
same,Activity,Calf thymus DNA [10],Dose-dependent effect
same,KSV,Albumin [11],1.73 ×10⁵ L/mol
same,MIC,Bacillus,4 µg/mL
same,MBC,Pseudomonas aeruginosa [12],8 µg/mL
same,K,Calf thymus DNA [13],1.54 ×10⁴ L/mol
same,MIC,Staphylococcus aureus [14],8 µg/mL
same,Activity,Calf thymus DNA [15],Active
same,Activity,Staphylococcus aureus [16],Active
same,MBC,Staphylococcus aureus [17],8 µg/mL
same,MIC,Candida albicans,8 µg/mL
same,MBC,Staphylococcus aureus [18],8 µg/mL
same,MIC,Cyberlindnera jadinii,4 µg/mL
same,KSV,Albumin [19],1.96 ×10⁵ L/mol
same,MIC,Salmonella typhi,2 µg/mL
same,Ratio,Staphylococcus aureus [20],1
same,MIC,Micrococcus luteus,8 µg/mL
same,MIC,Bacillus subtilis,8 µg/mL
CCn1cc(C(=O)O)c(=O)c2cc(F)c(N3CCNCC3)cc21 [NORFLOXACIN],MIC,Staphylococcus aureus [1],8 µg/mL
same,MIC,Escherichia coli [2],1 µg/mL
same,MIC,Escherichia coli [5],1 µg/mL
same,MIC,Pseudomonas aeruginosa [6],1 µg/mL
same,MIC,Shigella dysenteriae,16 µg/mL
same,MIC,Bacillus,4 µg/mL
same,MIC,Staphylococcus aureus [14],1 µg/mL
same,Activity,Staphylococcus aureus [16],inactive
same,MIC,Salmonella typhi,1 µg/mL
same,MIC,Micrococcus luteus,1 µg/mL
same,MIC,Bacillus subtilis,2 µg/mL
